Source: EP0572365A2, “Heteroprostanoids, process for their production and therapeutical use thereof” (NUOVO CONSORZIO SANITARIO NAZIONALE del Dott. Paolo Malizia …, priority 1992, dated 1993)

Assay: Stability assay: storage of buffered water solutions, residual activity measured in the thrombocyte aggregation assay
Assay type: physicochemical
Settings: room temperature, water solution buffered at pH 7
Source text: The stability of some compounds according to the present invention has been compared with that of a natural prostaglandine through storage at room temperature of water solutions buffered at pH 7, by measuring the residual activity in the assay of thrombocyte aggregation at different times; the results, listed in Table III, show a much greater stability: […]

Row | residual activity in the assay of thrombocyte aggregation (7 gg) | residual activity in the assay of thrombocyte aggregation (1h) | residual activity in the assay of thrombocyte aggregation (12h) | residual activity in the assay of thrombocyte aggregation (24h) | Structure (SMILES)
1 | 7 gg: 4 | 1h: 98 | 12h: 78 | 24h: 62 | CCCCCNC(=O)CN1CCC[C@H]1C(=O)OCCCCC(=O)O [III (X₂=R₂=R₆=CH₂, R₄=CO, R=H, n=4, m=3), L-7-14-dioxo-12,15-diaza-6-oxa-prostanoic acid]
2 | 7 gg: 15 | 1h: 100 | 12h: 92 | 24h: 80 | CCCCC(=O)NCC(=O)N1CCC[C@H]1C(=O)OCCCCC(=O)O [III (X₂R₄=CH₂, R₂=R₆=CO, R=H, n=4, m=3), L-7,13,16-trioxo-12,15-diaza-6-oxa-prostanoic]
3 | 7 gg: 0 | 1h: 30 | 12h: 2 | 24h: 0 | CCCCC[C@H](O)/C=C/[C@H]1[C@H](O)CC(=O)[C@@H]1CCCCCCC(=O)O [PGE₁, Alprostadil, reference compound]
